{
  "source": "ChEMBL document CHEMBL5579820",
  "about": "“New insights into butyrylcholinesterase: Pharmaceutical applications, selective inhibitors and multitarget-directed ligands” (Eur J Med Chem, 2024)",
  "key": {"[1]": {"target": "T1, Amine oxidase [flavin-containing] B (Homo sapiens, UniProt P27338)", "T1 sequence (P27338 whole entry)": "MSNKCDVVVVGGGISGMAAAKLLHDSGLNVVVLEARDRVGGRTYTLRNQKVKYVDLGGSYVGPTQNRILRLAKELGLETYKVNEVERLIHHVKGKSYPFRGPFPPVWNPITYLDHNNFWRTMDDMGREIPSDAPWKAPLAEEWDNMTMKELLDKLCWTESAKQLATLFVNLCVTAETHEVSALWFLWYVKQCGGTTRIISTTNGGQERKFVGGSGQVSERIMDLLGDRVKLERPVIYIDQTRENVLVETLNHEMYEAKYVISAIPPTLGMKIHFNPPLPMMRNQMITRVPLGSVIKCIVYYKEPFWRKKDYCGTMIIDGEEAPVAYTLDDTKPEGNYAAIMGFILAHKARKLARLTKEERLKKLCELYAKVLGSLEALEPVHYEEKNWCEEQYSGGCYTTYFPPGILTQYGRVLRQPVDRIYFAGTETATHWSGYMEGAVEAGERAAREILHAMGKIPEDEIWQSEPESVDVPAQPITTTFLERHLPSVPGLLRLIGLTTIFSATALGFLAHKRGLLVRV", "assay": "Inhibition of human recombinant MAO-B using benzylamine as substrate by fluorescence based analysis"}, "[2]": {"target": "T2, Amine oxidase [flavin-containing] A (Homo sapiens, UniProt P21397)", "T2 sequence (P21397 whole entry)": "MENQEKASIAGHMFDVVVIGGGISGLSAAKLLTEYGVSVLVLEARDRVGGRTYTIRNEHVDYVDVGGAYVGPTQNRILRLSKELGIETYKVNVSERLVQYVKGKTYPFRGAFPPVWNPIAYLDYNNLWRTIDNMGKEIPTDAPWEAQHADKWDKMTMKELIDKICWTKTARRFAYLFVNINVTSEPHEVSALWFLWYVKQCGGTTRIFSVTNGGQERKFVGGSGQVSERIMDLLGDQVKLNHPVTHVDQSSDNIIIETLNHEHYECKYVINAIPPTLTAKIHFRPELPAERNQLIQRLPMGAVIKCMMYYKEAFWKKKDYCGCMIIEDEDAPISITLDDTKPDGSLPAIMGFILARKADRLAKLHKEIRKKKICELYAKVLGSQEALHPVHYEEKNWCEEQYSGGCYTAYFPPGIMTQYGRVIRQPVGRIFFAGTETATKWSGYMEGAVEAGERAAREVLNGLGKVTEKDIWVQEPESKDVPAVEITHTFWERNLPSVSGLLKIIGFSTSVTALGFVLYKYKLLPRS", "assay": "Inhibition of human recombinant MAO-A using kynuramine as substrate by incubated for 75 mins by spectrophotometric analysis"}, "[3]": {"assay": "Inhibition of equine serum BChE using butyrylthiocholine iodide as substrate by measured after 30 mins Ellman's method", "type": "cell-free, Equus caballus"}, "Acetylcholinesterase [4]": {"target": "Acetylcholinesterase (Electrophorus electricus, UniProt O42275)", "sequence (O42275 whole entry)": "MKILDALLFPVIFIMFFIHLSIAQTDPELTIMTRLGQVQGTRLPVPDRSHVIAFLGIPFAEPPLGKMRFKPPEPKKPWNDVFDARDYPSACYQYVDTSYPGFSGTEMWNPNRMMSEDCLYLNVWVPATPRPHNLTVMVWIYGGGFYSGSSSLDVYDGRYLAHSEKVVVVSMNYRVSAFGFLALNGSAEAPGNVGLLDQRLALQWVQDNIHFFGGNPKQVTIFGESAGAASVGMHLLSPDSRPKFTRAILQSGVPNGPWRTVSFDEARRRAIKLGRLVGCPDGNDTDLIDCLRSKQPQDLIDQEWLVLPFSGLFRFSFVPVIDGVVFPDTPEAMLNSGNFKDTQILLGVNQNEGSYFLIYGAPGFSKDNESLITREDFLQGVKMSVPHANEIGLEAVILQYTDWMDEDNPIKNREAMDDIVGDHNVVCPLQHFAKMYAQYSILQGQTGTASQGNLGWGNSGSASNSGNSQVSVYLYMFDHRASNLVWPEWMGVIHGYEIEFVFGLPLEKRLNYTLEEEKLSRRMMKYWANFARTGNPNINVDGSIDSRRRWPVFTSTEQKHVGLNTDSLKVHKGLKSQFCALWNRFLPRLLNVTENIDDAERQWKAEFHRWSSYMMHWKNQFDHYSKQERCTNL", "assay": "Inhibition of electric eel AChE using acetylthiocholine iodide as substrate by Ellman's method"}, "Acetylcholinesterase [5]": {"target": "T3, Acetylcholinesterase (Homo sapiens, UniProt P22303)", "T3 sequence (P22303 whole entry)": "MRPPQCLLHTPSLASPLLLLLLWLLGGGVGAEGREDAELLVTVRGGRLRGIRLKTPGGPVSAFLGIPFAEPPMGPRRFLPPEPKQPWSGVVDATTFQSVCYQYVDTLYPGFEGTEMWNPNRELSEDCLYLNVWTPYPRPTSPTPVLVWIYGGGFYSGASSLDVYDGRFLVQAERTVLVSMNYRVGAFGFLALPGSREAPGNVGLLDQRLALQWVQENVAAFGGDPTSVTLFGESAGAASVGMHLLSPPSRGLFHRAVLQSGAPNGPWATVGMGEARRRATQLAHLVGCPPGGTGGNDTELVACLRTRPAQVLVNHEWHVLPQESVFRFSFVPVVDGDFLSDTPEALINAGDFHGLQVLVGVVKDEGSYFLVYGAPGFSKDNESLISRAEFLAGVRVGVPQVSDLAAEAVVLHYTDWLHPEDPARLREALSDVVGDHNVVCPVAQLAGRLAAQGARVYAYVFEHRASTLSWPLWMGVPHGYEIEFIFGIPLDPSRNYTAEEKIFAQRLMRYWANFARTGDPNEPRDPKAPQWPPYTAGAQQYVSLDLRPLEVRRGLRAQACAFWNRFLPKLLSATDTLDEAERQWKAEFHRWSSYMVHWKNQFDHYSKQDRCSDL", "assay": "Inhibition of human recombinant AChE using acetylthiocholine iodide as substrate preincubated for 30 mins followed by substrate addition and measured for 60 mins by Ellman's method"}, "Acetylcholinesterase [6]": {"target": "T3, Acetylcholinesterase", "assay": "Inhibition of human AChE using acetylthiocholine iodide as substrate by Ellman's method"}, "Cholinesterase [7]": {"target": "T4, Cholinesterase (Homo sapiens, UniProt P06276)", "T4 sequence (P06276 whole entry)": "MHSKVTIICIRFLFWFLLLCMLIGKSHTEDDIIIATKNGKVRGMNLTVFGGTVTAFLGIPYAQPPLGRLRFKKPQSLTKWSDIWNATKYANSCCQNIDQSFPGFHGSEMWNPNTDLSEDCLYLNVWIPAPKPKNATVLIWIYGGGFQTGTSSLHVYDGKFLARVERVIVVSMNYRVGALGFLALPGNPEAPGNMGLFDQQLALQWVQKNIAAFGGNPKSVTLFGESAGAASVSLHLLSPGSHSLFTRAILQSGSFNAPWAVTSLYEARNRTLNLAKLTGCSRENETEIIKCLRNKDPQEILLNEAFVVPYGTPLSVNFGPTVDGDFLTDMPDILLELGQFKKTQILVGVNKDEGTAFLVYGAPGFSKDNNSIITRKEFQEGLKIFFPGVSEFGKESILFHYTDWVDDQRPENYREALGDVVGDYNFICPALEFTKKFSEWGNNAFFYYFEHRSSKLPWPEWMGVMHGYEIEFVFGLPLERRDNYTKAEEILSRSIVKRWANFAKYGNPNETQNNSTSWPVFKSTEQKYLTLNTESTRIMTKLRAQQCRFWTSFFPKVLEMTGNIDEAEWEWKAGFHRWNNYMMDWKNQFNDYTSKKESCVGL", "assay": "Inhibition of human BChE using butyrylthiocholineiodide as substrate by Ellman's method"}, "Cholinesterase [8]": {"target": "T4, Cholinesterase", "assay": "Inhibition of BChE (unknown origin) incubated for 10 mins by Ellman's method"}, "Cholinesterase [9]": {"target": "Cholinesterase (Equus caballus, UniProt P81908)", "sequence (P81908 whole entry)": "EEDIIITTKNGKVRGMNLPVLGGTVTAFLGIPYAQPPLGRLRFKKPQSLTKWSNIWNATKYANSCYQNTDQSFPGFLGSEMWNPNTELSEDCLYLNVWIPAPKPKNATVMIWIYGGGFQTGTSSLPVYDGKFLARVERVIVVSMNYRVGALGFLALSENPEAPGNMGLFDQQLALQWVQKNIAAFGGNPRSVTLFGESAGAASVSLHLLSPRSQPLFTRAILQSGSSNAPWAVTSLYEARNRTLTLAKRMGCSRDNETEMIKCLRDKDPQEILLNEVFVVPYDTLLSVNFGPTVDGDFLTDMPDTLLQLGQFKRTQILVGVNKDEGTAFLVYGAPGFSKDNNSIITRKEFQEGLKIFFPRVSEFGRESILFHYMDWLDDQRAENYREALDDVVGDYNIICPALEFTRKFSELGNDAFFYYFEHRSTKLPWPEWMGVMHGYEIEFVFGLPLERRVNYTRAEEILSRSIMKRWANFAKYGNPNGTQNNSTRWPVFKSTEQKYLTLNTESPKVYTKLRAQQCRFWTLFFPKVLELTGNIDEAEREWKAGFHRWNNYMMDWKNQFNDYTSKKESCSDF", "assay": "Inhibition of equine serum BuChE using S-butyrylthiocholine chloride as substrate by Ellman's method", "type": "cell-free"}, "[10]": {"target": "Indoleamine 2,3-dioxygenase 1 (Homo sapiens, UniProt P14902)", "sequence (P14902 whole entry)": "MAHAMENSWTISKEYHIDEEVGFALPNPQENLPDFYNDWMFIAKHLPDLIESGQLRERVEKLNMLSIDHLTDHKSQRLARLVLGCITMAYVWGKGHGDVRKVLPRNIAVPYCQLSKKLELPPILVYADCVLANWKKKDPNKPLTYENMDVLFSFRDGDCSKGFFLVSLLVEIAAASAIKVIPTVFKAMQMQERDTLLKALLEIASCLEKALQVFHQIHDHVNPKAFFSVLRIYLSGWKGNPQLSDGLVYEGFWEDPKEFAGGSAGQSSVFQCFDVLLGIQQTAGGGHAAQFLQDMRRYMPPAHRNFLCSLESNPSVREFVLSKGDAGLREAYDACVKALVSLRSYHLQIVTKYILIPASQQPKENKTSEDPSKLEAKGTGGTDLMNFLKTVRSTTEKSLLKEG", "assay": "Inhibition of IDO1 (unknown origin)"}, "[11]": {"assay": "Inhibition of equine serum BChE using butyrylthiocholine iodide as substrate incubated for 30 mins by Ellman's method", "set-up": "species or system Equus caballus"}},
  "data": [
    {"smiles": "COc1cccc(COc2ccc(C(C)=O)c(OCc3cn(CCc4c[nH]c5ccccc45)nn3)c2)c1", "values": [
      {"measurement": "IC50", "setting": "[1]", "result": 3.71, "unit": "µM"},
      {"measurement": "IC50", "setting": "[2]", "result": 74.7, "unit": "µM"},
      {"measurement": "IC50", "setting": "[3]", "result": 0.92, "unit": "µM"},
      {"measurement": "IC50", "setting": "Acetylcholinesterase [4]", "result": "> 100", "unit": "µM"}
    ]},
    {"smiles": "Clc1ccc(C(Cn2ccnc2)OCc2csc3c(Cl)cccc23)c(Cl)c1", "note": "(stereo unspecified) [SERTACONAZOLE]", "values": [
      {"measurement": "IC50", "setting": "Acetylcholinesterase [5]", "result": 0.1, "unit": "µM"}
    ]},
    {"smiles": "Cc1cc2c(cc1C)[n+](Cc1ccccc1C)cn2C(c1ccccc1)c1ccccc1", "values": [
      {"measurement": "IC50", "setting": "Acetylcholinesterase [6]", "result": 4.19, "unit": "µM"},
      {"measurement": "IC50", "setting": "Cholinesterase [7]", "result": 0.15, "unit": "µM"}
    ]},
    {"smiles": "CN1CCc2c(c3cc(F)ccc3n2CCNC23CC4CC(C)(CC(C)(C4)C2)C3)C1", "values": [
      {"measurement": "IC50", "setting": "Cholinesterase [8]", "result": 39.7, "unit": "µM"},
      {"measurement": "IC50", "setting": "Cholinesterase [9]", "result": 0.72, "unit": "µM"}
    ]},
    {"smiles": "COc1cccc(COC(Cn2ccnc2)c2ccc(F)c(F)c2)c1", "note": "(stereo unspecified)", "values": [
      {"measurement": "IC50", "setting": "[10]", "result": 22.8, "unit": "µM"},
      {"measurement": "IC50", "setting": "[11]", "result": 13.2, "unit": "µM"}
    ]}
  ]
}
